Assay results: patent US20250115598A1 (Anaxis Pharma Pty Ltd, priority 2021, published 2025)
Read-outs that look alike come from different tables or passages of the source.

Key:
U937 cells = test: Counter screen: cell viability without the TSQ cocktail (off-target effect); set-up: species or system human
Summary of the method: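 U937 cells (20000/well, HT-RPMI + 7.4% FBS) treated with compound (10-point 1:3 dilution from 36 μM, 0.3% DMSO) without the TSQ cocktail for 48 h at 37 °C/5% CO2. Viability read as ATP by CellTiter-Glo luminescence, flagging off-target cytotoxicity.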

[1] = test system: Immortalised Mouse Dermal Fibroblasts (MDFs); test: Cellular assay: inhibition of TSI induced necroptosis, CellTitre-Glo viability; conditions: MDF, 3 hours TSI cocktail, read-out: Inhibition of TSI-induced necroptosis (IC50 cell-based assay) in MDF
Summary of the method: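 Immortalised mouse dermal fibroblasts (2200 cells/well) pretreated 30 min with compound, 10-point 1:3 series from 36 μM, 0.3% DMSO. Then 3 h at 37° C. with TNF (100 ng/ml), Smac mimetic (500 nM) and IDN-6556 (10 μM). CellTiter-Glo luminescence normalised to DMSO (100%) and DMSO+TSI (0%); IC50 from 4-parameter logistic fit.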

[2] = Table 23, read-out: Off-target effect (IC50 cell-based assay)
[3] = Homo sapiens, U-937, Table 26, read-out: Off-target effect (IC50 cell-based assay)
[4] = Mus musculus, Fibroblast, Table 27

Compound | IC50 (U937 cells; [2]) [µM] | IC50 ([1]; Table 24) [nM] | IC50 (U937 cells; [3]) [µM] | IC50 [1, 4] [nM]
Nc1ncc(-c2cnn(C3CCOCC3)c2)c2[nH]nc(-c3ccc(NS(=O)(=O)C(F)F)c(OCc4cccc(Cl)c4)c3)c12 [Compound 131] | > 10 | 1000 to 10000 |  | 
Cc1ncsc1-c1ccc(CNC(=O)[C@@H]2C[C@@H](O)CN2C(=O)[C@@H](NC(=O)COCCOCCn2cc(-c3cnc(N)c4c(-c5ccc(NS(=O)(=O)C(F)F)c(O[C@@H](C)c6ccc(F)cc6)c5)nn(C)c34)cn2)C(C)(C)C)cc1 [Compound 1006, (2S,4R)-1-[(2S)-2-(2-{2-[2-(4-{4-amino-3-[4-(difluoromethanesulfonamido)-3-[(1S)-1-(4-fluorophenyl)ethoxy]phenyl]-1-methyl-1H-pyrazolo[4,3-c]pyridin-7-yl}-1H-pyrazol-1-yl)ethoxy]ethoxy}acetamido)-3,3-dimethylbutanoyl]-4-hydroxy-N-{[4-(4-methyl-1,3-thiazol-5-yl)phenyl]methyl}pyrrolidine-2-carboxamide] |  |  | 1 to 10 | 1000 to 10000
Cc1ncsc1-c1ccc(CNC(=O)[C@@H]2C[C@@H](O)CN2C(=O)[C@@H](NC(=O)CCCCCCn2cc(-c3cnc(N)c4c(-c5ccc(NS(=O)(=O)C(F)F)c(O[C@@H](C)c6ccc(F)cc6)c5)nn(C)c34)cn2)C(C)(C)C)cc1 [Compound 1008, (2S,4R)-1-[(2S)-2-[7-(4-{4-amino-3-[4-(difluoromethanesulfonamido)-3-[(1 S)-1-(4-fluorophenyl)ethoxy]phenyl]-1-methyl-1H-pyrazolo[4,3-c]pyridin-7-yl}-1H-pyrazol-1-yl)heptanamido]-3,3-dimethylbutanoyl]-4-hydroxy-N-{[4-(4-methyl-1,3-thiazol-5-yl)phenyl]methyl}pyrrolidine-2-carboxamide] |  |  | 1 to 10 | < 1000
Cc1ncsc1-c1ccc(CNC(=O)[C@@H]2C[C@@H](O)CN2C(=O)[C@@H](NC(=O)CCN2CCCC(n3cc(-c4cnc(N)c5c(-c6ccc(NS(=O)(=O)C(F)F)c(O[C@@H](C)c7ccc(F)cc7)c6)nn(C)c45)cn3)C2)C(C)(C)C)cc1 (stereo partly drawn) [Compound 1014, (2S,4R)-1-[(2S)-2-{3-[3-(4-{4-amino-3-[4-(difluoromethanesulfonamido)-3-[(1S)-1-(4-fluorophenyl)ethoxy]phenyl]-1-methyl-1H-pyrazolo[4,3-c]pyridin-7-yl}-1H-pyrazol-1-yl)piperidin-1-yl]propanamido}-3,3-dimethylbutanoyl]-4-hydroxy-N-{[4-(4-methyl-1,3-thiazol-5-yl)phenyl]methyl}pyrrolidine-2-carboxamide] |  |  | > 10 | 1000 to 10000
Cc1ncsc1-c1ccc(CNC(=O)[C@@H]2C[C@@H](O)CN2C(=O)[C@@H](NC(=O)COCCN2CCCC(n3cc(-c4cnc(N)c5c(-c6ccc(NS(=O)(=O)C(F)F)c(O[C@@H](C)c7ccc(F)cc7)c6)nn(C)c45)cn3)C2)C(C)(C)C)cc1 (stereo partly drawn) [Compound 1015, (2S,4R)-1-[(2S)-2-(2-{2-[3-(4-{4-amino-3-[4-(difluoromethanesulfonamido)-3-[(1S)-1-(4-fluorophenyl)ethoxy]phenyl]-1-methyl-1H-pyrazolo[4,3-c]pyridin-7-yl}-1H-pyrazol-1-yl)piperidin-1-yl]ethoxy}acetamido)-3,3-dimethylbutanoyl]-4-hydroxy-N-{[4-(4-methyl-1,3-thiazol-5-yl)phenyl]methyl}pyrrolidine-2-carboxamide] |  |  | > 10 | 1000 to 10000
Cc1ncsc1-c1ccc(CNC(=O)[C@@H]2C[C@@H](O)CN2C(=O)[C@@H](NC(=O)COCCN2CCC(n3cc(-c4cnc(N)c5c(-c6ccc(NS(=O)(=O)C(F)F)c(O[C@@H](C)c7ccc(F)cc7)c6)nn(C)c45)cn3)CC2)C(C)(C)C)cc1 [Compound 1018, (2S,4R)-1-[(2S)-2-(2-{2-[4-(4-{4-amino-3-[4-(difluoromethanesulfonamido)-3-[(1S)-1-(4-fluorophenyl)ethoxy]phenyl]-1-methyl-1H-pyrazolo[4,3-c]pyridin-7-yl}-1H-pyrazol-1-yl)piperidin-1-yl]ethoxy}acetamido)-3,3-dimethylbutanoyl]-4-hydroxy-N-{[4-(4-methyl-1,3-thiazol-5-yl)phenyl]methyl}pyrrolidine-2-carboxamide] |  |  | > 10 | 1000 to 10000
C[C@H](Oc1cc(-c2nn(C)c3c(-c4cnn(CCCCCCCOc5cccc6c5C(=O)N(C5CCC(=O)NC5=O)C6=O)c4)cnc(N)c23)ccc1NS(=O)(=O)C(F)F)c1ccc(F)cc1 (stereo partly drawn) [Compound 1031, N-(4-{4-amino-7-[1-(7-{[2-(2,6-dioxopiperidin-3-yl)-1,3-dioxo-2,3-dihydro-1H-isoindol-4-yl]oxy}heptyl)-1H-pyrazol-4-yl]-1-methyl-1H-pyrazolo[4,3-c]pyridin-3-yl}-2-[(1 S)-1-(4-fluorophenyl)ethoxy]phenyl)-1,1-difluoromethanesulfonamide] |  |  |  | < 1000
N-(4-(4-amino-1-methyl-7-(1-(1,2,2-trimethylpiperidin-4-yl)-1H-pyrazol-4-yl)-1H-pyrazolo[4,3-c]pyridin-3-yl)-2-((S)-1-(4-fluorophenyl)ethoxy)phenyl)-1,1-difluoromethanesulfonamide [Compound 113] | > 10 | < 1000 |  | 
